Results published in patent US20240067672A1, “FLAVONE DERIVATIVE FOR TREATING TUMORS AND USE THEREOF” (SICHUAN FUSHENGYUAN TECHNOLOGY CO., LTD, priority 2019, published 2024).
≈ marks a conversion by molar mass, not a printed value. Like-named read-outs stand apart in the source and are kept apart here.

Legend:
SMMC7721 hepatoma cells = experiment: Anti-tumor activity in vitro, MTT method, SMMC7721; format: cell-based, human
Protocol: (§1) The effects of Icaritin and its derivatives on the activities of HepG2 and SMMC7721 hepatoma cells were investigated by a MTT method. […] After reaction for 48, 7 2 h, each well was added with 20 μL 5 mg/mL, of MTT solution, and incubated in a cell incubator for 3-4 h. Then the liquid in the well plates was sucked to discard. Each well was added with 150 μL of dimethyl sulfoxide (DMSO), and shaken on an enzyme-labeled instrument for 30 s at ambient temperature so that the Formazan crystals were dissolved sufficiently. The absorbance value A of each well at 570 nm was detected by the enzyme-labeled instrument, and the experiment was repeated for 3 times.

[1] = Determination of solubility (HPLC); format: physicochemical
Protocol: About 1.325 mg of Icaritin and the synthesized derivative were weighed and dissolved in 1.5 mL methanol respectively, then diluted with methanol into solutions of 10, 20, 50, 100, 150, 200, 500 μg/mL, and filtered over an organic-system filter head of 0.45 μm into sample bottles, obtaining the samples for test. Four parts of Icaritin and the synthesized derivative were weighed respectively, 1.00 mg for each part, and placed into 1.5 mL EP tubes, and 1 mL of water, normal saline, PBS, and 0.1% Tween 80 were respectively added thereto. The obtained solutions were ultrasonicated for 1 h, placed in a water bath at 37° C. overnight, and centrifuged at 10000 r/min for 3 min to collect supernatants. The supernatants were taken into sample bottles and detected by HPLC. The experiments were conducted in parallel for three times. The detection of HPLC is conducted under conditions of a chromatographic column of waters Symmetry C18, a mobile phase of a solution of methanol and water with a ratio of 80:20, a flow rate of 1.0 mL/min, a column temperature of 30° C., a detection wavelength of 210 nm, a run time of 30 min, and a sample load of 20 μL.

HepG2 hepatoma cells = experiment: Anti-tumor activity in vitro, MTT method, HepG2; format: cell-based, human; settings: for IC50 compared with Icaritin, HepG2 72 h: HepG2, 72 h after administration
Protocol: as §1

[2] = Homo sapiens, SMMC-7721, SMMC7721, 48 h, MTT, read-out: IC50 SMMC7721 48 h
[3] = Homo sapiens, SMMC-7721, SMMC7721, 72 h, MTT, read-out: IC50 SMMC7721 72 h
[4] = Homo sapiens, HepG2, 48 h, MTT, read-out: IC50 HepG2 48 h
[5] = Homo sapiens, HepG2, 72 h, MTT, read-out: IC50 HepG2 72 h
[6] = SMMC7721, 48 h, MTT, read-out: IC50 SMMC7721 48 h
[7] = SMMC7721, 72 h, MTT, read-out: IC50 SMMC7721 72 h
[8] = HepG2, 48 h, MTT, read-out: IC50 HepG2 48 h
[9] = HepG2, 72 h, MTT, read-out: IC50 HepG2 72 h

In the case of `COc1ccc(-c2oc3c(CC=C(C)C)c(O)cc(O)c3c(=O)c2OC(=O)CCC(=O)OCCOCCOCc2cn(CCO[C@@H]3O[C@H](CO)[C@@H](O)[C@H](O)[C@H]3O)nn2)cc1` [Compound 65], the IC50 (SMMC7721 hepatoma cells; [2]) is reported as > 100 µM, the IC50 (SMMC7721 hepatoma cells; [3]) is reported as > 100 µM and the “Solubility, 0.1% Tween 80” value [1] is reported as “Insoluble”. For the same molecule, the “Solubility, Normal Saline” value [1] was “Insoluble”, the “Solubility, PBS” value [1] was “Insoluble” and the “Solubility, Water” value [1] was “Insoluble”. The IC50 (HepG2 hepatoma cells; [4]) was > 100 µM and the IC50 (HepG2 hepatoma cells; [5]) was 37.74 ± 0.2 µM.

In the case of `COc1ccc(-c2oc3c(CC=C(C)C)c(O)cc(O)c3c(=O)c2OC(=O)CCC(=O)OCCOCc2cn(C3O[C@H](CO)[C@@H](O)[C@H](O)[C@H]3O)nn2)cc1` (some centres unmarked) [Compound 71], the IC50 (SMMC7721 hepatoma cells; Homo sapiens, SMMC-7721, 48 h, read-out: IC50 SMMC7721 48 h) is reported as > 100 µM, the IC50 (SMMC7721 hepatoma cells; Homo sapiens, SMMC-7721, 72 h, read-out: IC50 SMMC7721 72 h) is reported as 29.7 ± 1.23 µM and the “Solubility, 0.1% Tween 80” value [1] is reported as “Insoluble”. For the same molecule, the “Solubility, Normal Saline” value [1] was “Insoluble”, the “Solubility, PBS” value [1] was “Insoluble” and the “Solubility, Water” value [1] was “Insoluble”. The IC50 (HepG2 hepatoma cells; Homo sapiens, HepG2, 48 h, read-out: IC50 HepG2 48 h) was > 100 µM and the IC50 (HepG2 hepatoma cells; Homo sapiens, HepG2, 72 h, read-out: IC50 HepG2 72 h) was > 100 µM.

In the case of `COc1ccc(-c2oc3c(CC=C(C)C)c(O)cc(O)c3c(=O)c2OC(=O)CCC(=O)OCCOCc2cn(CCOC3OC(CO)C(O)C(O)C3O)nn2)cc1` (centres unmarked) [Compound 72], the IC50 (SMMC7721 hepatoma cells; [6]) is reported as > 100 µM, the IC50 (SMMC7721 hepatoma cells; [7]) is reported as > 100 µM and the “Solubility, 0.1% Tween 80” value [1] is reported as 5.697 ± 1.312 µg/mL (≈ 7.12 µM). For the same molecule, the “Solubility, Normal Saline” value [1] was 5.673 ± 1.031 µg/mL (≈ 7.09 µM), the “Solubility, PBS” value [1] was 5.656 ± 1.131 µg/mL (≈ 7.07 µM) and the “Solubility, Water” value [1] was 5.852 ± 0.748 µg/mL (≈ 7.32 µM). The IC50 (HepG2 hepatoma cells; [8]) was > 100 µM and the IC50 (HepG2 hepatoma cells; [9]) was > 100 µM.

In the case of `COc1ccc(-c2oc3c(CC=C(C)C)c(O)cc(O)c3c(=O)c2OC(=O)CCC(=O)OCCOCc2cn(CCOCCOC3OC(CO)C(O)C(O)C3O)nn2)cc1` (centres unmarked) [Compound 73], the IC50 (SMMC7721 hepatoma cells; [6]) is reported as > 100 µM, the IC50 (SMMC7721 hepatoma cells; [7]) is reported as 37.2 ± 1.36 µM and the “Solubility, 0.1% Tween 80” value [1] is reported as “Insoluble”. The “Solubility, Normal Saline” value [1] was “Insoluble”, the “Solubility, PBS” value [1] was “Insoluble” and the “Solubility, Water” value [1] was “Insoluble”. It also gave an IC50 (HepG2 hepatoma cells; [8]) of 43.2 ± 1.21 µM and an IC50 (HepG2 hepatoma cells; [9]) of 36.8 ± 0.65 µM.

For `COc1ccc(-c2oc3c(CC=C(C)C)c(O)cc(O)c3c(=O)c2OC(=O)CCC(=O)NCCCCCOCc2cn(C3O[C@H](CO)[C@@H](O)[C@H](O)[C@H]3O)nn2)cc1` (some centres unmarked) [Compound 81], the IC50 (SMMC7721 hepatoma cells; [2]) was > 100 µM, the IC50 (SMMC7721 hepatoma cells; [3]) was 22.2 ± 1.45 µM and the “Solubility, 0.1% Tween 80” value [1] was “Insoluble”. The “Solubility, Normal Saline” value [1] was “Insoluble”, the “Solubility, PBS” value [1] was “Insoluble” and the “Solubility, Water” value [1] was “Insoluble”. The “IC50 compared with Icaritin, HepG2 72 h” value (HepG2 hepatoma cells) was “less than that of Icaritin”, the IC50 (HepG2 hepatoma cells; [4]) was > 100 µM and the IC50 (HepG2 hepatoma cells; [5]) was 12 ± 1.23 µM.

With `COc1ccc(-c2oc3c(CC=C(C)C)c(O)cc(O)c3c(=O)c2OC(=O)CCC(=O)OCCCCOCc2cn(C3OC(CO)C(O)C(O)C3O)nn2)cc1` (centres unmarked) [Compound 87] the IC50 (SMMC7721 hepatoma cells; [6]) was > 100 µM, the IC50 (SMMC7721 hepatoma cells; [7]) was 12.7 ± 1.02 µM and the “IC50 compared with Icaritin, SMMC7721 72 h” value (SMMC7721 hepatoma cells; SMMC7721, 72 h after administration) was “less than that of Icaritin”. The “Solubility, 0.1% Tween 80” value ([1]; 0.1% Tween 80, 37° C. overnight, n = 3) was 1.358 ± 0.235 µg/mL (≈ 1.73 µM), the “Solubility, PBS” value ([1]; PBS, 37° C. overnight, n = 3) was “Insoluble” and the “Solubility, Normal Saline” value ([1]; normal saline, 37° C. overnight, n = 3) was 1.386 ± 0.743 µg/mL (≈ 1.77 µM). The “Solubility, Water” value ([1]; water, 37° C. overnight, n = 3) was 1.277 ± 0.836 µg/mL (≈ 1.63 µM), the IC50 (HepG2 hepatoma cells; [8]) was > 100 µM and the IC50 (HepG2 hepatoma cells; [9]) was 7.03 ± 0.67 µM. For the same molecule, the “IC50 compared with Icaritin, HepG2 72 h” value (HepG2 hepatoma cells) was “less than that of Icaritin”.

In the case of `COc1ccc(-c2oc3c(CC=C(C)C)c(O)cc(O)c3c(=O)c2OC(=O)CCC(=O)OCCCCOCc2cn(CCOC3OC(CO)C(O)C(O)C3O)nn2)cc1` (centres unmarked) [Compound 88], the IC50 (SMMC7721 hepatoma cells; [6]) is reported as > 100 µM, the IC50 (SMMC7721 hepatoma cells; [7]) is reported as 40.5 ± 1.56 µM and the “Solubility, 0.1% Tween 80” value [1] is reported as 8.384 ± 1.363 µg/mL (≈ 10.1 µM). The “Solubility, Normal Saline” value [1] was 7.399 ± 0.384 µg/mL (≈ 8.94 µM), the “Solubility, PBS” value [1] was “Insoluble” and the “Solubility, Water” value [1] was 7.597 ± 1.038 µg/mL (≈ 9.18 µM). The IC50 (HepG2 hepatoma cells; [8]) was > 100 µM and the IC50 (HepG2 hepatoma cells; [9]) was > 100 µM.
